# Test results published in PubChem BioAssay (NCI).
#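 Grown in 96-well plates, cells were treated for 48 hours with each compound at five concentrations. Insufficient inhibition: endpoint recorded as highest concentration tested. GI50: concentration for 50% inhibition of growth. The concentration for full growth arrest is given as TGI.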
# Columns and labels:
# Test in all cases: NCI tumour cell line growth inhibition, 48 h
# NCI-H460 lung = system: NCI-H460 lung
# NCI-H522 lung = system: NCI-H522 lung
# NCI/ADR-RES ovarian = system: NCI/ADR-RES ovarian
# OVCAR-3 ovarian = system: OVCAR-3 ovarian
# OVCAR-4 ovarian = system: OVCAR-4 ovarian
# OVCAR-5 ovarian = system: OVCAR-5 ovarian
# OVCAR-8 ovarian = system: OVCAR-8 ovarian
# PC-3 prostate = system: PC-3 prostate
# RPMI-8226 leukemia = system: RPMI-8226 leukemia
# RXF 393 renal = system: RXF 393 renal
# SF-268 CNS = system: SF-268 CNS
# SF-295 CNS = system: SF-295 CNS
# SF-539 CNS = system: SF-539 CNS
# SK-MEL-2 melanoma = system: SK-MEL-2 melanoma
# SK-MEL-28 melanoma = system: SK-MEL-28 melanoma
# SK-MEL-5 melanoma = system: SK-MEL-5 melanoma
# SK-OV-3 ovarian = system: SK-OV-3 ovarian
# SN12C renal = system: SN12C renal
# SNB-19 CNS = system: SNB-19 CNS
# SNB-75 CNS = system: SNB-75 CNS
# SR leukemia = system: SR leukemia
# SW-620 colon = system: SW-620 colon
# T-47D breast = system: T-47D breast
# TK-10 renal = system: TK-10 renal
# U251 CNS = system: U251 CNS
# UACC-257 melanoma = system: UACC-257 melanoma
# UACC-62 melanoma = system: UACC-62 melanoma
# UO-31 renal = system: UO-31 renal
compound,measurement,setting,value
Cc1nc(-c2cc3ccccc3oc2=O)ccc1C(=O)/C=C/c1ccccn1,GI50,NCI-H460 lung,> 100 µM
same,TGI,NCI-H460 lung,> 100 µM
same,GI50,NCI-H522 lung,> 100 µM
same,TGI,NCI-H522 lung,> 100 µM
same,GI50,NCI/ADR-RES ovarian,> 100 µM
same,TGI,NCI/ADR-RES ovarian,> 100 µM
same,GI50,OVCAR-3 ovarian,> 100 µM
same,TGI,OVCAR-3 ovarian,> 100 µM
same,GI50,OVCAR-4 ovarian,> 100 µM
same,TGI,OVCAR-4 ovarian,> 100 µM
same,GI50,OVCAR-5 ovarian,> 100 µM
same,TGI,OVCAR-5 ovarian,> 100 µM
same,GI50,OVCAR-8 ovarian,> 100 µM
same,TGI,OVCAR-8 ovarian,> 100 µM
same,GI50,PC-3 prostate,> 100 µM
same,TGI,PC-3 prostate,> 100 µM
same,GI50,RPMI-8226 leukemia,3.41 µM
same,TGI,RPMI-8226 leukemia,> 100 µM
same,GI50,RXF 393 renal,> 100 µM
same,TGI,RXF 393 renal,> 100 µM
same,GI50,SF-268 CNS,> 100 µM
same,TGI,SF-268 CNS,> 100 µM
same,GI50,SF-295 CNS,> 100 µM
same,TGI,SF-295 CNS,> 100 µM
same,GI50,SF-539 CNS,> 100 µM
same,TGI,SF-539 CNS,> 100 µM
same,GI50,SK-MEL-2 melanoma,> 100 µM
same,TGI,SK-MEL-2 melanoma,> 100 µM
same,GI50,SK-MEL-28 melanoma,> 100 µM
same,TGI,SK-MEL-28 melanoma,> 100 µM
same,GI50,SK-MEL-5 melanoma,> 100 µM
same,TGI,SK-MEL-5 melanoma,> 100 µM
same,GI50,SK-OV-3 ovarian,> 100 µM
same,TGI,SK-OV-3 ovarian,> 100 µM
same,GI50,SN12C renal,> 100 µM
same,TGI,SN12C renal,> 100 µM
same,GI50,SNB-19 CNS,> 100 µM
same,TGI,SNB-19 CNS,> 100 µM
same,GI50,SNB-75 CNS,> 100 µM
same,TGI,SNB-75 CNS,> 100 µM
same,GI50,SR leukemia,5.3 µM
same,TGI,SR leukemia,> 100 µM
same,GI50,SW-620 colon,6.77 µM
same,TGI,SW-620 colon,> 100 µM
same,GI50,T-47D breast,> 100 µM
same,TGI,T-47D breast,> 100 µM
same,GI50,TK-10 renal,> 100 µM
same,TGI,TK-10 renal,> 100 µM
same,GI50,U251 CNS,8.49 µM
same,TGI,U251 CNS,> 100 µM
same,GI50,UACC-257 melanoma,> 100 µM
same,TGI,UACC-257 melanoma,> 100 µM
same,GI50,UACC-62 melanoma,> 100 µM
same,TGI,UACC-62 melanoma,> 100 µM
same,GI50,UO-31 renal,> 100 µM
same,TGI,UO-31 renal,> 100 µM
